These results are taken from patent US8637665B2, “Pyrrolo[2,L-C][L,4]benzodiazepine-benzothiazole or benzoxazole conjugates linked through piperazine moiety and process for the preparation thereof” (priority 2010, dated 2014).

Test [1] relates to duplex-form calf thymus DNA (CT-DNA). The experiment in a line: Thermal denaturation studies with calf thymus DNA (DNA binding affinity). As to conditions: [PBD]:[DNA] 1:5, CT-DNA 100 μM, ligand 20 μM, pH 7.00. The protocol:
Compounds have been subjected to thermal denaturation studies with duplex-form calf thymus DNA (CT-DNA) using an modification of a reported procedure (Newman, M. S. Carcinog-compr. Surv. 1976,1, 203; (b) Hecht, S. S.; Loy, M.; Hoffman, Carcinog-compr. Surv. 1976, 1, 325). Working solutions in aqueous buffer (10 mM NaH2PO4/Na2HPO4, 1 mM Na2EDTA, pH 7.00+0.01) containing CT-DNA (100 μm in phosphate) and the PBD (20 μm) have been prepared by addition of concentrated PBD solutions in DMSO to obtain a fixed [PBD]/[DNA] molar ratio of 1:5. The DNA-PBD solutions have been incubated at 37° C. for 0 and 18 h prior to analysis. Samples have been monitored at 260 using a Beckman DU-800 spectrophotometer fitted with high performance temperature controller, and heated at 1° C. min^−1 in the 40-110° C. range. DNA helix→coil transition temperatures (Tm) have been obtained from the maxima in the d(A260)/dT derivative plots. Drug-induced alterations in DNA melting behavior are given by: ΔTm=Tm(DNA+PBD)−Tm(DNA alone), where the Tm value for the PBD-free CT-DNA is 69.1±0.01.
The DNA binding activity for these novel C8-linked benzothiazole, benzoxazole-PBD hybrids has been examined by thermal denaturation studies using calf thymus (CT) DNA. […] The data for the compounds 9a-n is included in Table 7 for comparison.

For test [2], the system named is KB (oral cancer) cell line. The experiment in a line: In vitro anticancer activity, SRB assay, KB. Particulars: Homo sapiens, 48 h; for GI50: read-out: GI50 KB, 48 h drug exposure, SRB, mean of three determinations; for CC50: read-out: LC50 KB, 50% cell death, 48 h drug exposure, SRB. The format is cell-based, human. The protocol: (§1) Anticancer activity: In vitro biological activity studies were carried out at the Advance Center for Treatment Research & Education in Cancer (ACTREC), Navi Mumbai.
(§2) The compounds were evaluated for in vitro anticancer activity against eight tumour cells lines derived from seven cancer types (non-small-cell lung, colon, oral, cervix, ovarian, prostate, and breast cancer) as shown in Table 2. For each compound, dose response curves for each cell line were measured at a minimum of five concentrations at 10 fold dilutions. A protocol of 48 h continuous drug exposure was used and a sulforhodamine B (SRB) protein assay was used to estimate cell viability or growth. The concentration causing 50% cell growth inhibition (GI50) and 50% cell death (LC50, −50% growth) compared with the control was calculated. Compounds 9a-9l have been evaluated for their in vitro cytotoxicity in eight cell lines from seven human cancer types of lung (Hop-62, A-549) colon (COLO-205) cervix (Si—Ha), ovary (A-2780), prostate (PC3) breast (MCF7), oral (KB). The results are expressed as percent of cell growth determined relative to that of untreated control cells (Table-8 and table-9).

The subject of test [3] is A 549 (lung cancer) cell line. The experiment in a line: cells. The format is cell-based. As to conditions: Homo sapiens, A549, 48 h; for GI50: read-out: GI50 A 549, 48 h drug exposure, SRB, mean of three determinations; for CC50: read-out: LC50 A 549, 50% cell death, 48 h drug exposure, SRB. Here is the method: as §1, §2
The subject of test [4] is SiHa (cervix cancer) cell line. The test can be described thus: cells. It counts as cell-based. Particulars: Homo sapiens, SiHa, 48 h; for GI50: read-out: GI50 SiHa, 48 h drug exposure, SRB, mean of three determinations; for LC50 (concentration causing 50% cell death): read-out: LC50 SiHa, 50% cell death, 48 h drug exposure, SRB. The protocol:
as §1, §2

The subject of test [5] is MCF 7 (breast cancer) cell line. The test can be described thus: cells. The format is cell-based. As to conditions: Homo sapiens, MCF7, 48 h; for GI50: read-out: GI50 MCF 7; for LC50 (concentration causing 50% cell death): read-out: LC50 MCF 7, 50% cell death, 48 h drug exposure, SRB. Here is the method:
as §1, §2

Test [6] concerns PC 3 (prostate cancer) cell line. The experiment in a line: cells. The format is cell-based. Particulars: Homo sapiens, 48 h; for GI50: read-out: GI50 PC 3; for CC50: read-out: LC50 Pc 3, 50% cell death, 48 h drug exposure, SRB. Here is the method: as §1, §2
Test [7] has as its system A 2780 (ovary cancer) cell line. The test can be described thus: cells. Particulars: Homo sapiens, A2780, 48 h; for GI50: read-out: GI50 A 2780, 48 h drug exposure, SRB, mean of three determinations; for CC50: read-out: LC50 A 2780, 50% cell death, 48 h drug exposure, SRB. The format is cell-based. The protocol:
as §1, §2

The subject of test [8] is HOP 62 (lung cancer) cell line. The test can be described thus: cells. The format is cell-based. Particulars: Homo sapiens, HOP-62, 48 h; for GI50: read-out: GI50 HOP 62, 48 h drug exposure, SRB, mean of three determinations; for LC50: read-out: LC50 HOP 62, 50% cell death, 48 h drug exposure, SRB. Here is the method: as §1, §2
The subject of test [9] is Colo 205 (colon cancer) cell line. The experiment in a line: cells. As to conditions: Homo sapiens, COLO 205, 48 h; for GI50: read-out: GI50 Colo 205, 48 h drug exposure, SRB, mean of three determinations; for CC50: read-out: LC50 Colo 205. It counts as cell-based. Here is the method: as §1, §2
Test [10] relates to eight tumour cells lines derived from seven cancer types. The test can be described thus: In vitro anticancer activity, SRB assay, panel of eight cell lines. As to conditions: Homo sapiens, range over the eight cell lines per compound; read-out: GI50 range against cancer cell lines. The format is cell-based. Here is the method: as §1, §2
Background: In SRB staining, fixed cells bind dye roughly in proportion to their protein.

Test [11] deals with duplex-form calf thymus DNA (CT-DNA). Particulars: comparative data, hybrids without piperazine, cited from earlier work.

By GI50 is commonly meant the concentration at which growth is held to half of that of the control. What is called LC50 is the concentration lethal to half of the exposed cells or organisms. On to `COc1cc2c(cc1OCCCN1CCN(CCCOc3ccc(-c4nc5ccccc5s4)cc3)CC1)N=C[C@@H]1CCCN1C2=O` [Compound 9a], for which the “ΔTm after incubation at 37° C. for 0 h” value in test [1] turned out to be 10.2 °C. Besides, the “ΔTm after incubation at 37° C. for 18 h” value in [1] stood at 10.8 °C. The GI50 is 120 nM in [2]; 130 nM in test [3]; 130 nM in test [4]; < 10 nM in test [5]; 120 nM in test [6]; 108 nM in test [7]. In addition, the results for the GI50 in test [8], in test [9] and in test [10] were 100 nM, 100 nM and ≤ 130 nM, respectively. Also, the CC50 is 2400 nM in [2]; > 100000 nM in [3]; 28000 nM in test [6]; 23000 nM in test [7]; > 100000 nM in test [9]. Besides, the figures for the LC50 (concentration causing 50% cell death) in test [4] and in [5] were 27500 nM and 1900 nM, respectively. Besides, the LC50 in test [8] was 27000 nM.
As for `COc1cc(-c2nc3ccccc3s2)ccc1OCCCN1CCN(CCCOc2cc3c(cc2OC)C(=O)N2CCC[C@H]2C=N3)CC1` [Compound 9b], the “ΔTm after incubation at 37° C. for 0 h” value in [1] turned out to be 12.1 °C. The “ΔTm after incubation at 37° C. for 18 h” value in [1] came to 12.7 °C. Besides, the GI50 in [2] is < 10 nM; in test [3], 120 nM; in test [4], < 10 nM; in test [5], < 10 nM; in test [6] it was < 10 nM; in test [7], < 10 nM. Moreover, the results for the GI50 in test [8], in [9] and in test [10] were < 10 nM, 90 nM and ≤ 120 nM, respectively. The CC50 in test [2] was 2200 nM; in [3], > 100000 nM; in [6], 2400 nM; in [7] it was 120 nM; in test [9] it was > 100000 nM. In addition, the LC50 (concentration causing 50% cell death) in test [4] is 2400 nM; in test [5], < 10 nM. In addition, the 50% lethal concentration (LC50) in test [8] stood at 28000 nM.
`COc1cc2c(cc1OCCCN1CCN(CCCOc3ccc(-c4nc5ccc(F)cc5s4)cc3)CC1)N=C[C@@H]1CCCN1C2=O` [Compound 9c]: the “ΔTm after incubation at 37° C. for 0 h” value in test [1] amounted to 10.3 °C. Moreover, the “ΔTm after incubation at 37° C. for 18 h” value in test [1] was found to be 10.7 °C. In addition, the GI50 is 110 nM in [2]; < 10 nM in test [3]; 130 nM in test [4]; < 10 nM in test [5]; 110 nM in test [6]; 116 nM in test [7]. Besides, the GI50 in test [8] was 110 nM; in test [9], 130 nM; in test [10], ≤ 130 nM. Moreover, the CC50 was 26000 nM in test [2]; 33000 nM in [3]; 2300 nM in test [6]; 2300 nM in [7]; > 100000 nM in [9]. Also, the LC50 (concentration causing 50% cell death) amounted to 27000 nM in test [4] and 170 nM in test [5]. Besides, the LC50 in test [8] was determined as 29000 nM.
`COc1cc2c(cc1OCCCN1CCN(CCCOc3cccc(-c4nc5ccccc5s4)c3)CC1)N=C[C@@H]1CCCN1C2=O` [Compound 9d, 7-Methoxy-8-[3-(4-{3-[3(1,3-benzothiazol-2-yl)-phenoxy]propyl}piperazin-1-yl)propyl]oxy-(11aS)-1,2,3,11a-tetrahydro-5H-pyrrolo[2,1-c][1,4]benzodiazepin-5-one]: in test [1], the “ΔTm after incubation at 37° C. for 0 h” value is 11.2 °C. Besides, the “ΔTm after incubation at 37° C. for 18 h” value in test [1] was 11.5 °C. Further, the GI50 was 110 nM in [2]; < 10 nM in test [3]; 120 nM in test [4]; 10 nM in [5]; < 10 nM in [6]; 99 nM in [7]. In addition, the GI50 in test [8] was < 10 nM; in [9], 110 nM; in test [10], ≤ 120 nM. Further, the CC50 was 2300 nM in test [2]; > 100000 nM in test [3]; 28000 nM in [6]; 2400 nM in test [7]; > 100000 nM in [9]. Further, the results for the LC50 (concentration causing 50% cell death) in [4] and in [5] were 26000 nM and 2100 nM, respectively. Besides, the LC50 in [8] was determined as 27000 nM.
Regarding `COc1cc2c(cc1OCCCCN1CCN(CCCCOc3cccc(-c4nc5ccccc5s4)c3)CC1)N=C[C@@H]1CCCN1C2=O` [Compound 9h, 7-Methoxy-8-[4-(4-{4-[3(1,3-benzothiazol-2-yl)-phenoxy]butyl}piperazin-1-yl)butyl]oxy-(11aS)-1,2,3,11a-tetrahydro-5H-pyrrolo[2,1-c][1,4]benzodiazepin-5-one], the “ΔTm after incubation at 37° C. for 0 h” value in test [1] was found to be 11.9 °C. Also, the “ΔTm after incubation at 37° C. for 18 h” value in test [1] was 12.3 °C. In addition, the GI50 in [2] worked out at 120 nM; in test [3], 120 nM; in [4], 130 nM; in test [5] it was 120 nM; in [6], 140 nM; in [7] it was 109 nM. The GI50 in test [8] is 100 nM; in test [9], 160 nM. For the same compound, the CC50 in [2] is 200 nM; in test [3], > 100000 nM; in test [6], 2400 nM; in test [7], 2300 nM; in [9] it was > 100000 nM. Also, the LC50 (concentration causing 50% cell death) in test [4] came out at 27000 nM; in test [5] it was 2200 nM. Also, the LC50 in test [8] was 27000 nM.
In the case of `COc1cc2c(cc1OCCCCCOc1ccc(-c3nc4ccccc4o3)cc1)N=C[C@@H]1CCCN1C2=O` [Compound 30a], in [11], the “ΔTm after incubation at 37° C. for 0 h (PBD hybrids with out piperizine)” value is 4.1 °C and the “ΔTm after incubation at 37° C. for 18 h (PBD hybrids with out piperizine)” value was 4.3 °C.
`COc1cc(-c2nc3ccccc3o2)ccc1OCCCCCOc1cc2c(cc1OC)C(=O)N1CCC[C@H]1C=N2` [Compound 30b]: in test [11], the “ΔTm after incubation at 37° C. for 0 h (PBD hybrids with out piperizine)” value was 4.2 °C and the “ΔTm after incubation at 37° C. for 18 h (PBD hybrids with out piperizine)” value was 4.3 °C.
